Our source for the RP-LC retention time values is the METLIN SMRT retention time set (Domingo-Almenara et al. 2019).

Each structure is given as a SMILES string.

This series is described as follows: gradient 5% acetonitrile 3 min, to 50% in 2 min, to 85% in 15 min, held 3 min, 100 µL/min. The settings on record: column: Zorbax Extend-C18 2.1 x 50 mm; eluents: water / acetonitrile, 0.1% formic acid. A digest of the protocol:
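Standards, all pure, were combined into mixtures of ~100 molecules and run at 100 μL/min on a Zorbax Extend-C18 column (2.1 × 50 mm, 1.8 μm) with water and acetonitrile, each containing 0.1% formic acid. A coupled quadrupole time-of-flight mass spectrometer operated in positive and negative ionization mode. Retention time values come from computationally picked adduct peaks, each inspected manually.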
On to `Cc1ccc(C)c(NC(=O)C(=O)NCC(c2ccc3c(c2)OCO3)N2CCOCC2)c1` (stereo not drawn), for which the RP-LC retention time came to 693 s.

As for `CCOc1cccc(-c2noc(Cn3c(=O)n(-c4ccc(F)cc4)c(=O)c4sccc43)n2)c1`, the RP-LC retention time stood at 1050 s.

Compound `CCc1cccc(C)c1N(C(=O)Cn1c(CC)nc2ccccc21)C(C)COC` (stereo not drawn) returned an RP-LC retention time of 776 s.

Compound `O=C(CN1CC=C(c2cnn(-c3ccc(F)cc3)c2)CC1)N1CCN(c2ccccn2)CC1` had an RP-LC retention time of 566 s.

As for `COc1ccc(CNC(=O)N2CCN(Cc3nc4ccc(Cl)cc4o3)CC2)cc1`, the RP-LC retention time turned out to be 711 s.

In turn, `CCCCN1C(=O)c2ccccc2C(C(=O)NCc2ccncc2)C12CCCCC2` (stereo not drawn) returned an RP-LC retention time of 662 s.

Consider `CCn1c(SCC(=O)N2CCCC2)nnc1-c1ccc2c(c1)OCCCO2`, for which the RP-LC retention time was 666 s.

`CCCN1C(=O)COc2ccc(-c3noc(C(C)Oc4ccccc4)n3)cc21` (stereo not drawn) showed an RP-LC retention time of 1160 s.

On to `Cc1noc(/C=C\c2ccc(S(=O)(=O)N3CCCC3)cc2)c1NC(=O)C1CC1`, for which the RP-LC retention time amounted to 837 s.

In turn, `O=c1ccc(-c2ccccc2)nn1Cc1nc(-c2ccc(Cl)cc2)no1` gave an RP-LC retention time of 1080 s.

`CCc1nc2ccccc2n1CC(=O)NCC(C)C` gave an RP-LC retention time of 597 s.

The compound `Cc1cccn2cc(C(=O)NCc3ccc(N(C)C)cc3)nc12` returned an RP-LC retention time of 565 s.

As to `CCc1ccc(N2C(=O)C3N=NN(Cc4nc(-c5ccccc5Cl)no4)C3C2=O)cc1` (stereo not drawn), the RP-LC retention time is 1060 s.

In turn, `CCOC(=O)c1nc(N(C)c2ccccc2F)c2ccccc2n1` returned an RP-LC retention time of 931 s.

In turn, `Cc1ccc(NC(=O)N2CCc3c(c(-c4nc(C5CC5)no4)nn3C)C2)cc1` returned an RP-LC retention time of 867 s.

With `O=C(NCCC1=CCCCC1)C(=O)Nc1cccc([N+](=O)[O-])c1`, the RP-LC retention time was determined as 1030 s.

Take `Cc1ncc2c(n1)CCCN(CC(=O)NC1CCCCCC1)C2=O`: the RP-LC retention time was determined as 682 s.

`Cc1cccc(-c2csc3c(=O)n(Cc4cc(=O)n5ccccc5n4)cnc23)c1` displayed an RP-LC retention time of 831 s.

In turn, `Cc1cc2nn(CC(=O)Nc3cc(F)ccc3C)c(=O)n2c(-c2ccccc2)n1` showed an RP-LC retention time of 627 s.

In the case of `CCc1cccc(NC(=O)c2c(C)oc3nc(C)nc(N4CCCC4)c23)c1`, the RP-LC retention time turned out to be 861 s.

`O=C(NC1CCCCCCC1)C1CCCN(C(=O)c2cc(-c3ccncc3)n[nH]2)C1` (stereo not drawn) registered an RP-LC retention time of 646 s.

With `O=C([C@@H]1C[C@H](Oc2ccccc2)CN1C(=O)c1ccoc1)N1CCCC1`, the RP-LC retention time stood at 733 s.

For `Cc1ccc(CN2CCC[C@H]2c2nc(C3CCOCC3)n[nH]2)c(C)c1`, the RP-LC retention time was found to be 590 s.

Compound `COc1cc(CNCCc2c[nH]c3ccccc23)ccc1OCc1ccc2c(c1)n(C)c(=O)n2C` showed an RP-LC retention time of 670 s.

Compound `CN1CCC(NC(=O)C2CCN(c3nc4ccc(-c5ccsc5)nc4s3)CC2)CC1` returned an RP-LC retention time of 640 s.

`O=C(Cn1cccc(-c2nc(-c3ccc(Cl)cc3)no2)c1=O)NC1CCCC1` had an RP-LC retention time of 881 s.

`O=C(NCc1ccccc1C(F)(F)F)c1ccc2ncnc(N3CCCC3)c2c1` had an RP-LC retention time of 692 s.

Turning to `CCCSCCCNC(=O)CN1C(=O)CCn2nc(-c3cn(C)c4ccccc34)cc21`, the RP-LC retention time worked out at 832 s.

Turning to `Cc1ccn(-c2ccc(Nc3ccc(NC(=O)c4ccccc4C(F)(F)F)cc3)nn2)n1`, the RP-LC retention time was determined as 809 s.

On to `OC(CN1CCN(c2ncccn2)CC1)c1ccc(Br)cc1` (stereo not drawn), for which the RP-LC retention time was 607 s.

For `CC(C)Cn1cc(CCNC(=O)c2c(F)cccc2F)c2cccnc21`, the RP-LC retention time was found to be 788 s.

`CN1CCN(c2nc(Nc3ccc4c(c3)OCO4)c3cnn(-c4ccccc4)c3n2)CC1` registered an RP-LC retention time of 701 s.

`NC(=O)C1CCN(C(=O)Cn2c(=O)n(C3CCCCC3)c(=O)c3cc(Br)ccc32)CC1`: the RP-LC retention time stood at 771 s.

`COc1cccc(CNC(=O)Nc2cc3c(cc2N2CCCC2)n(C)c(=O)n3C)c1` showed an RP-LC retention time of 600 s.

`COC(=O)c1sccc1S(=O)(=O)Nc1ccc(CC(=O)N2CCC(O)CC2)cc1` showed an RP-LC retention time of 882 s.

`Cc1ccc(N2CCN(C(=O)c3cn4cc(Cl)ccc4n3)CC2)cc1`: the RP-LC retention time was 830 s.

Regarding `CCc1nc2c(c(=O)n1CC(=O)Nc1ccc(C(C)C)cc1)CN(Cc1ccccc1)CC2`, the RP-LC retention time is 753 s.

As to `Cc1ccc(C)c(NC(=O)C2CCN(S(=O)(=O)c3cn(C(C)C)cn3)CC2)c1`, the RP-LC retention time worked out at 767 s.

The compound `O=C(Nc1nc(-c2ccccc2)cs1)C(=O)c1c[nH]c2ccccc12` had an RP-LC retention time of 1070 s.

As to `COc1ccccc1-n1ccn(Cc2nc(-c3ccc(C(C)(C)C)cc3)no2)c(=O)c1=O`, the RP-LC retention time was 1020 s.

`O=C(NCc1nn(Cc2ccccc2)c2ccccc12)c1cnccn1` yielded an RP-LC retention time of 858 s.

In turn, `Cc1[nH]c(C)c(S(=O)(=O)N2CCC(C(=O)NC3CCCCC3)CC2)c1C(=O)N1CCCCC1` returned an RP-LC retention time of 720 s.

Consider `CCn1nccc1C(=O)NC(C)(C)c1nc2c(c(C(N)=O)n1)OCO2`, for which the RP-LC retention time stood at 614 s.

As to `O=c1ccc(-c2cccc(Cl)c2)nn1CCc1nc(-c2ccccc2)no1`, the RP-LC retention time was 1030 s.

In turn, `Cc1ccc(NC(=O)Cn2nc3c(Oc4ccc(F)cc4)nccn3c2=O)cc1` registered an RP-LC retention time of 859 s.

`Cc1nc([C@@H]2CN(Cc3ccc(Br)o3)C[C@H]2C(N)=O)n[nH]1`: the RP-LC retention time was determined as 556 s.

Turning to `O=C(Nc1ccc(N2CCN(c3ccccc3)C2=O)nc1)c1ccc(Cl)cc1`, the RP-LC retention time was 1010 s.

On to `COc1ccc(-c2nnc(-c3ccc(Cl)c(S(=O)(=O)N4CCC(C)CC4)c3)o2)cc1`, for which the RP-LC retention time was found to be 1230 s.

Take `COc1ccc(OC)c(NC(=O)C2CCN(c3cc(N4CCSCC4)ncn3)CC2)c1`: the RP-LC retention time stood at 694 s.

`COc1ccc(N2CCN(c3cc(SCC(=O)Nc4cc(F)ccc4F)ncn3)CC2)cc1` displayed an RP-LC retention time of 1130 s.

`CCOC(=O)c1[nH]c(C)c(CCC(=O)N2CCC(C(=O)NCc3ccc(Cl)cc3)CC2)c1C` had an RP-LC retention time of 828 s.

As for `Cc1nc2cc(N3CC(C(=O)NCc4ccccc4Cl)CC3=O)ccc2o1` (stereo not drawn), the RP-LC retention time was found to be 734 s.

Compound `CC(CNC(=O)c1nc(Cn2c(=O)oc3ccc(Cl)cc32)no1)c1ccccc1` (stereo not drawn) displayed an RP-LC retention time of 796 s.

Take `CCc1ccccc1NC(=O)N1CCC(n2cnc3ccc(C)cc3c2=O)CC1`: the RP-LC retention time was determined as 799 s.

`CCOc1cc(C2c3c(n[nH]c3C)C(=O)N2C)ccc1O` (stereo not drawn) had an RP-LC retention time of 626 s.

As for `O=C(c1ccccc1)N1CCCc2cc(NS(=O)(=O)c3ccccc3Cl)ccc21`, the RP-LC retention time was determined as 816 s.

In turn, `C[C@@]1(c2cc(-c3cncnc3)c(F)cc2F)CCSC(N)=N1` returned an RP-LC retention time of 654 s.

For `CCOC(=O)c1nc(NCCc2ccccc2Cl)c2c(C)noc2n1`, the RP-LC retention time stood at 904 s.

For the compound `CC(C)NC(=O)C1CCCN(c2cc(=O)n(C)c(=O)n2C)C1` (stereo not drawn), the RP-LC retention time worked out at 595 s.

In turn, `Cc1nn(CC(=O)NCCC2=CCCCC2)c(=O)c2c(C)n(-c3ccccc3)nc12` returned an RP-LC retention time of 870 s.

For the compound `Cc1ccc(C2Cn3nnc(-c4nc(-c5ccccc5F)no4)c3CO2)c(C)c1` (stereo not drawn), the RP-LC retention time turned out to be 1230 s.

The compound `O=C(Nc1ccc2c(c1)OCO2)N1CCN(c2nc3ccccc3n(Cc3ccccc3)c2=O)CC1` showed an RP-LC retention time of 1010 s.

Compound `O=C(Cc1csc(NC(=O)c2ccco2)n1)NCc1cccs1` displayed an RP-LC retention time of 668 s.

With `O=C(CCCc1c[nH]c2ccccc12)NCCc1c[nH]c2ccccc12`, the RP-LC retention time was found to be 830 s.

For `CNC(=O)C1=CCN(C(=O)c2cc(C)cc(C)c2)CC1`, the RP-LC retention time is 705 s.

For `Cc1cc(Cl)ccc1NC(=O)c1cccn1Cc1noc(C2CC2)n1`, the RP-LC retention time came to 1020 s.

`NS(=O)(=O)c1ccc(NC(=O)C2Cc3ccccc3C(=O)O2)cc1` (stereo not drawn) returned an RP-LC retention time of 684 s.

`O=C(Nc1ccc(F)cc1)C1CCCN(c2nc3ccsc3c(=O)n2Cc2ccc(F)cc2)C1` (stereo not drawn) had an RP-LC retention time of 996 s.

In turn, `O=C1NC2(CCN(C(=O)c3c(F)cccc3F)CC2)N=C1c1cccc(F)c1` displayed an RP-LC retention time of 815 s.

The compound `COc1cccc(CNC(=O)NCCC2CCN(S(=O)(=O)c3ccc(C)cc3)CC2)c1` returned an RP-LC retention time of 873 s.

Regarding `COc1ccc(O)c2c(=O)c3c(OC)cc4c(c3oc12)[C@@H]1C=CO[C@@H]1O4`, the RP-LC retention time was 979 s.

`Cc1ccc(NC(=O)Nc2cccn3nc(C(C)C)nc23)cc1` gave an RP-LC retention time of 964 s.

Turning to `COc1ccc(-c2nnc(-c3cc(S(=O)(=O)N4CCN(C)CC4)ccc3Cl)o2)cc1`, the RP-LC retention time was 682 s.

In the case of `CCCNc1cc(N2CCC(CCC(=O)NC3CCN(C(=O)OCC)CC3)CC2)ncn1`, the RP-LC retention time was found to be 627 s.

For the compound `Cn1cc(-c2cc3n(n2)CCCN3C(=O)CCC(=O)NC2CCCCC2)c2ccccc21`, the RP-LC retention time stood at 837 s.

`CCOC(=O)C1CCN(C(=O)Cc2csc(NC(=O)c3ccco3)n2)CC1` came in with an RP-LC retention time of 649 s.

With `Cc1ccc(-n2nc3c(N4CCCC(C(=O)NCCc5cccs5)C4)nnc(C)c3c2C)cc1` (stereo not drawn), the RP-LC retention time was 748 s.

Compound `Cc1ccc(-c2noc(Cn3ccn(-c4c(C)cccc4C)c(=O)c3=O)n2)cc1` yielded an RP-LC retention time of 925 s.
